Measurements as given in ChEMBL document CHEMBL5537176, “Discovery of Novel Pyridazine-Tethered Sulfonamides as Carbonic Anhydrase II Inhibitors for the Management of Glaucoma” (J Med Chem, 2024).
pKi: −log10 of the molar value.

Target: Carbonic anhydrase 9 (Homo sapiens, UniProt Q16790)
Assay: Inhibition of human CA IX assessed as inhibition constant by stopped-flow CO2 hydrase assay method

Q: `COc1cc2c(cc1OC)-c1c(c(C(=O)Nc3ccc(S(N)(=O)=O)cc3)nn1C)C2` was tested. Which pKi did it give?
A: The pKi was 8.49.
